Experimental data reported in PMC5939083 (Proceedings of the National Academy of Sciences of the …, 2018).

Biological target: T1, CYP9K1 (Anopheles gambiae, UniProt Q8T633)
T1 sequence (Q8T633 1-531): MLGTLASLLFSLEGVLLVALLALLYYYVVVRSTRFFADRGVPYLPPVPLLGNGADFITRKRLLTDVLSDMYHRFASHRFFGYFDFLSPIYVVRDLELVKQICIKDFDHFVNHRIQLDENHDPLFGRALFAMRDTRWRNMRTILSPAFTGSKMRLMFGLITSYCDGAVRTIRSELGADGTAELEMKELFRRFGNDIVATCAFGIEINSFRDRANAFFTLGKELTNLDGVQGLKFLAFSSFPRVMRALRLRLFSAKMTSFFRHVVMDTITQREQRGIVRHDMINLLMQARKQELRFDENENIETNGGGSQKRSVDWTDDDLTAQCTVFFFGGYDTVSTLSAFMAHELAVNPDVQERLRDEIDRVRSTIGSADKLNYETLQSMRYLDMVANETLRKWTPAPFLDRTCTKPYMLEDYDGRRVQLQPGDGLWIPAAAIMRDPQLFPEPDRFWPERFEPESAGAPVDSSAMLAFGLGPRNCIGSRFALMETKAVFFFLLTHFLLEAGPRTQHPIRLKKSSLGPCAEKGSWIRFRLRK
T1 sequence (Q86QH5 1-679 partner): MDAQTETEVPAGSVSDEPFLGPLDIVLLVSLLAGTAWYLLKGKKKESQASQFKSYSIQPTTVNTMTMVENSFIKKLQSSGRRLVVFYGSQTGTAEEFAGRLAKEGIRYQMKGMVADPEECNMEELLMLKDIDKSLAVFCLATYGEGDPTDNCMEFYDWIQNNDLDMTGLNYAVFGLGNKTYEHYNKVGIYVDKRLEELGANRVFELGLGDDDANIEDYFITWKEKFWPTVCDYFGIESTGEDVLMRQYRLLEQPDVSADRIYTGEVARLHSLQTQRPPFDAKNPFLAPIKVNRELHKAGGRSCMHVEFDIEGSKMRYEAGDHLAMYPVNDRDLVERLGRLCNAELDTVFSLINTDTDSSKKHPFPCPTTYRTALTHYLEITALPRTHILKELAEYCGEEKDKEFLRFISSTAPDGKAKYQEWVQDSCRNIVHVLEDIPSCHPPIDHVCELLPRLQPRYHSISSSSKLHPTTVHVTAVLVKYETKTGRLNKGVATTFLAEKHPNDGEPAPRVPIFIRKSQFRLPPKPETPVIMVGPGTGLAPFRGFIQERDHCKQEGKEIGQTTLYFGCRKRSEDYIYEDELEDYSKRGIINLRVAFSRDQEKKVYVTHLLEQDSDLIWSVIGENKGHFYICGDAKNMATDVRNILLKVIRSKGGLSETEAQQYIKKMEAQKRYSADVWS
T1 sequence (Q86QH4 1-128 partner): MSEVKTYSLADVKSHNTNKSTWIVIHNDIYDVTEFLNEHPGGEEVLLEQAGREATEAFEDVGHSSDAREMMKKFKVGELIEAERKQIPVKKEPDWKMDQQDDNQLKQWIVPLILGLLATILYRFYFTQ
Assay: HPLC substrate depletion, Michaelis-Menten fit
Assay type: biochemical
Settings: NADPH generating system; AgCPR, AgCytb5; Tris-HCl 0.2 M pH 7.4, 0.25 mM MgCl2, 30 °C; 0.5-150 μM deltamethrin

CC1(C)[C@H](C(=O)O[C@H](C#N)c2cccc(Oc3ccccc3)c2)[C@@H]1C=C(Br)Br [deltamethrin]
Km: 28.2 µM
